Patent US20230104936A1, “TRPML MODULATORS” (Casma Therapeutics, Inc., priority 2019, published 2023)

System: TFEB
Assay: TFEB nuclear translocation assay, HeLa wt cells
Format: cell-based
Settings: Homo sapiens, HeLa, 2 h, 2 hrs compound treatment, Table 1 does not say HeLa wt or TRPML1 KO
Outline: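 HeLa wt cells were treated with compound for 2 hrs at 37° C, then fixed in 4% PFA and immunostained for TFEB with an Alexa 488 secondary and Hoechst nuclear counterstain. Automated epifluorescence imaging at ×20 gave the ratio of nuclear TFEB intensity to a perinuclear ring region, from which AC50 was derived.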

Structure (SMILES) | AC50 [nM]
CN(C)S(=O)(=O)c1ccc(S(=O)(=O)Nc2ccccc2N2CCN(CC(C)(F)F)CC2)cc1 [Compound A-525, N4-{2-[4-(2,2-difluoropropyl)piperazin-1-yl]phenyl}-N1,N1-dimethylbenzene-1,4-disulfonamide] | ≤ 2000
CC(C)CN1CCN(c2ccccc2NS(=O)(=O)c2ccc(S(=O)(=O)N(C)C)cc2)CCC1=O [Compound A-526, N1,N1-dimethyl-N4-{2-[4-(2-methylpropyl)-5-oxo-1,4-diazepan-1-yl]phenyl}benzene-1,4-disulfonamide] | 2010 to 8000
CC(C)(C)C(=O)N1CCN(c2ccccc2NS(=O)(=O)c2ccc(C(F)(F)F)cc2)CC1 [Compound A-527, N-{2-[4-(2,2-dimethylpropanoyl)piperazin-1-yl]phenyl}-4-(trifluoromethyl)benzene-1-sulfonamide] | 2010 to 8000
CC(C)(C)C(=O)N1CCN(c2ccccc2NS(=O)(=O)c2ccc(C3CC3(F)F)cc2)CC1 (centres unmarked) [Compound A-528, 4-(2,2-difluorocyclopropyl)-N-{2-[4-(2,2-dimethylpropanoyl)piperazin-1-yl]phenyl}benzene-1-sulfonamide] | 2010 to 8000
CC(C)(C)C(=O)N1CCN(c2ccccc2NS(=O)(=O)c2ccc(C(F)F)cc2)CC1 [Compound A-529, 4-(difluoromethyl)-N-{2-[4-(2,2-dimethylpropanoyl)piperazin-1-yl]phenyl}benzene-1-sulfonamide] | 2010 to 8000
CC1Cc2cc(S(=O)(=O)Nc3ccccc3N3CCN(C(=O)C(C)(C)C)CC3)ccc2O1 (centres unmarked) [Compound A-530, N-{2-[4-(2,2-dimethylpropanoyl)piperazin-1-yl]phenyl}-2-methyl-2,3-dihydro-1-benzofuran-5-sulfonamide] | 2010 to 8000
COc1ccc(S(=O)(=O)Nc2ccccc2N2CCN(C(C)C(F)(F)F)CC2)cc1 (centres unmarked) [Compound A-531, 4-methoxy-N-{2-[4-(1,1,1-trifluoropropan-2-yl)piperazin-1-yl]phenyl}benzene-1-sulfonamide] | ≤ 2000
COCC1(C)CCN(c2ccccc2NS(=O)(=O)Cc2ccccc2)CC1 [Compound A-532, N-{2-[4-(methoxymethyl)-4-methylpiperidin-1-yl]phenyl}-1-phenylmethanesulfonamide] | ≤ 2000
CN(C)S(=O)(=O)c1ccc(S(=O)(=O)n2nc(C3CCN(c4c(F)cccc4F)CC3)c3c2CCNC3)cc1 [Compound A-533, 4-({3-[1-(2,6-difluorophenyl)piperidin-4-yl]-1H,4H,5H,6H,7H-pyrazolo[4,3-c]pyridin-1-yl}sulfonyl)-N,N-dimethylbenzene-1-sulfonamide] | 2010 to 8000
CC(C)(C)C(=O)N1CCN(c2ccccc2NS(=O)(=O)c2ccc3c(c2)CC(Cl)(Cl)C3=O)CC1 [Compound A-534, 2,2-dichloro-N-{2-[4-(2,2-dimethylpropanoyl)piperazin-1-yl]phenyl}-1-oxo-2,3-dihydro-1H-indene-5-sulfonamide] | 2010 to 8000
CC(C)(C)C(=O)N1CCN(c2ccccc2NS(=O)(=O)c2ccc(C(C)(C)C#N)cc2)CC1 [Compound A-535, 4-(1-cyano-1-methylethyl)-N-{2-[4-(2,2-dimethylpropanoyl)piperazin-1-yl]phenyl}benzene-1-sulfonamide] | 2010 to 8000
CC(C)(C)C(=O)N1CCN(c2ccccc2NS(=O)(=O)c2ccc(OC3CCCC3)cc2)CC1 [Compound A-536, 4-(cyclopentyloxy)-N-{2-[4-(2,2-dimethylpropanoyl)piperazin-1-yl]phenyl}benzene-1-sulfonamide] | 8010 to 9990
CC(C)(C)C(=O)N1CCN(c2ccccc2NS(=O)(=O)c2ccc(C(F)(F)C(F)(F)F)cc2)CC1 [Compound A-537, N-{2-[4-(2,2-dimethylpropanoyl)piperazin-1-yl]phenyl}-4-(1,1,2,2,2-pentafluoroethyl)benzene-1-sulfonamide] | 8010 to 9990
COCC1(C)CCN(c2ccccc2NS(=O)(=O)c2ccc(OC)cc2)CC1 [Compound A-538, 4-methoxy-N-{2-[4-(methoxymethyl)-4-methylpiperidin-1-yl]phenyl}benzene-1-sulfonamide] | ≤ 2000
COCC1(C)CCN(c2ccccc2NS(=O)(=O)c2ccc(C)cc2)CC1 [Compound A-539, N-{2-[4-(methoxymethyl)-4-methylpiperidin-1-yl]phenyl}-4-methylbenzene-1-sulfonamide] | ≤ 2000
CC(N1CCN(c2ccccc2NS(=O)(=O)c2ccc(S(C)(=O)=O)cc2)CC1)C(F)(F)F (centres unmarked) [Compound A-540, 4-methanesulfonyl-N-{2-[4-(1,1,1-trifluoropropan-2-yl)piperazin-1-yl]phenyl}benzene-1-sulfonamide] | ≤ 2000
CC(N1CCN(c2ccccc2NS(=O)(=O)c2ccc(Cl)cc2)CC1)C(F)(F)F (centres unmarked) [Compound A-541, 4-chloro-N-{2-[4-(1,1,1-trifluoropropan-2-yl)piperazin-1-yl]phenyl}benzene-1-sulfonamide] | ≤ 2000
CC(N1CCN(c2ccccc2NS(=O)(=O)Cc2ccccc2)CC1)C(F)(F)F (centres unmarked) [Compound A-542, 1-phenyl-N-{2-[4-(1,1,1-trifluoropropan-2-yl)piperazin-1-yl]phenyl}methanesulfonamide] | ≤ 2000

Structure (SMILES) | AC50 [nM]
CN(C)S(=O)(=O)c1ccc(S(=O)(=O)Nc2ccccc2N2CCC(COC(F)F)CC2)cc1 [Compound A-543, N4-(2-{4-[(difluoromethoxy)methyl]piperidin-1-yl}phenyl)-N1,N1-dimethylbenzene-1,4-disulfonamide] | ≤ 2000
C[C@@H]1CN(CC2CCN(c3ccccc3NS(=O)(=O)c3ccc(S(=O)(=O)N(C)C)cc3)CC2)C[C@H](C)O1 [Compound A-544, N4-[2-(4-{[(2R,6S)-2,6-dimethylmorpholin-4-yl]methyl}piperidin-1-yl)phenyl]-N1,N1-dimethylbenzene-1,4-disulfonamide] | ≤ 2000
CN(C)S(=O)(=O)c1ccc(S(=O)(=O)Nc2ccccc2N2CCN(C(c3ccccc3)C(F)(F)F)CC2)cc1 (centres unmarked) [Compound A-545, N1,N1-dimethyl-N4-{2-[4-(2,2,2-trifluoro-1-phenylethyl)piperazin-1-yl]phenyl}benzene-1,4-disulfonamide] | ≤ 2000
CCC1(OC)CCN(c2ccccc2NS(=O)(=O)c2ccc(S(=O)(=O)N(C)C)cc2)CC1 [Compound A-546, N4-[2-(4-ethyl-4-methoxypiperidin-1-yl)phenyl]-N1,N1-dimethylbenzene-1,4-disulfonamide] | ≤ 2000
CN(C)S(=O)(=O)c1ccc(S(=O)(=O)Nc2ccccc2N2CCC(CCCN3CCOCC3)CC2)cc1 [Compound A-547, N1,N1-dimethyl-N4-(2-{4-[3-(morpholin-4-yl)propyl]piperidin-1-yl}phenyl)benzene-1,4-disulfonamide] | ≤ 2000
CN(C)S(=O)(=O)c1ccc(S(=O)(=O)Nc2ccccc2N2CCC(C3CCOCC3)CC2)cc1 [Compound A-548, N1,N1-dimethyl-N4-{2-[4-(oxan-4-yl)piperidin-1-yl]phenyl}benzene-1,4-disulfonamide] | ≤ 2000
CCN(CC)CC1CCN(c2ccccc2NS(=O)(=O)c2ccc(S(=O)(=O)N(C)C)cc2)CC1 [Compound A-549, N4-(2-{4-[(diethylamino)methyl]piperidin-1-yl}phenyl)-N1,N1-dimethylbenzene-1,4-disulfonamide] | 2010 to 8000
CN(C)S(=O)(=O)c1ccc(S(=O)(=O)Nc2ccccc2N2CCC(C(F)(F)F)CC2)cc1 [Compound A-550, N1,N1-dimethyl-N4-{2-[4-(trifluoromethyl)piperidin-1-yl]phenyl}benzene-1,4-disulfonamide] | ≤ 2000
CN(C)S(=O)(=O)c1ccc(S(=O)(=O)Nc2ccccc2N2CCN(CC(F)(F)C(F)F)CC2)cc1 [Compound A-551, N1,N1-dimethyl-N4-{2-[4-(2,2,3,3-tetrafluoropropyl)piperazin-1-yl]phenyl}benzene-1,4-disulfonamide] | ≤ 2000
CN(C)S(=O)(=O)c1ccc(S(=O)(=O)Nc2ccccc2N2CCN(CC(F)F)CC2)cc1 [Compound A-552, N4-{2-[4-(2,2-difluoroethyl)piperazin-1-yl]phenyl}-N1,N1-dimethylbenzene-1,4-disulfonamide] | ≤ 2000
COCCN1CCN(c2ccccc2NS(=O)(=O)c2ccc(S(=O)(=O)N(C)C)cc2)CC1 [Compound A-553, N4-{2-[4-(2-methoxyethyl)piperazin-1-yl]phenyl}-N1,N1-dimethylbenzene-1,4-disulfonamide] | 2010 to 8000
CN(C)S(=O)(=O)c1ccc(S(=O)(=O)Nc2ccccc2N2CCC(CN3CCOCC3)CC2)cc1 [Compound A-554, N1,N1-dimethyl-N4-(2-{4-[(morpholin-4-yl)methyl]piperidin-1-yl}phenyl)benzene-1,4-disulfonamide] | ≤ 2000
COCC1(C)CCN(c2ccccc2NS(=O)(=O)c2ccc(OCC3CC3)cc2)CC1 [Compound A-555, 4-(cyclopropylmethoxy)-N-{2-[4-(methoxymethyl)-4-methylpiperidin-1-yl]phenyl}benzene-1-sulfonamide] | 2010 to 8000
CC(c1ccccc1N1CCN(C(=O)OCc2ccccc2)CC1)S(=O)(=O)c1ccc(S(=O)(=O)N(C)C)cc1 (centres unmarked) [Compound A-556, benzyl 4-(2-{1-[4-(dimethylsulfamoyl)benzenesulfonyl]ethyl}phenyl)piperazine-1-carboxylate] | ≤ 2000
CC(O)C1(C)CCN(c2ccccc2NS(=O)(=O)c2ccc(S(=O)(=O)N(C)C)cc2)CC1 (centres unmarked) [Compound A-557, N1-(2-(4-(1-hydroxyethyl)-4-methylpiperidin-1-yl)phenyl)-N4,N4-dimethylbenzene-1,4-disulfonamide] | 2010 to 8000
CN(C)S(=O)(=O)c1ccc(S(=O)(=O)Nc2ccccc2N2CCC(C)(C3(O)CC3)CC2)cc1 [Compound A-558, N1-(2-(4-(1-hydroxycyclopropyl)-4-methylpiperidin-1-yl)phenyl)-N4,N4-dimethylbenzene-1,4-disulfonamide] | 2010 to 8000
CN(C)S(=O)(=O)c1ccc(S(=O)(=O)Nc2ccccc2N2CCN(CCF)CC2)cc1 [Compound A-559, N4-{2-[4-(2-fluoroethyl)piperazin-1-yl]phenyl}-N1,N1-dimethylbenzene-1,4-disulfonamide] | 2010 to 8000
